For 32 molecules, IC50 results are on record in patent US12336981B2, “Compounds and compositions for the inhibition of NAMPT” (Valo Health, Inc., priority 2010, dated 2025).

The subject of assay [1] is A2780 cells. The experiment in a line: In-vitro cell proliferation assay (SRB), A2780 cells. It is filed as cell-based. Particulars: Homo sapiens, A2780, 72 h, A2780 cells, 72 hours, read-out: A2780 IC50. Summed up:
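Cells were plated overnight at 37° C., 5% CO2, then exposed to serially diluted compounds (0.1% DMSO final) for 72 hours. Viable cells were measured by sulforhodamine B staining after TCA fixation, read at 570 nm; media-only background was subtracted before % inhibition was calculated.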

Assay [2] deals with T1, NAMPT (Homo sapiens, UniProt P43490).
T1 construct: His tag; host or cells: E. coli
The experiment in a line: Biochemical inhibition assay: NAMPT enzymatic reaction, NMN quantified by mass spectrometry. The note with it: NAMPT enzymatic reaction; read-out: Biochem IC50. Summed up: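 Inhibition of E. coli-expressed His-tagged human NAMPT, measured as NMN formation by mass spectrometry after a 30 min room-temperature reaction containing 1 μM NAM, 100 μM PRPP and 2.5 mM ATP.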

Where two headings read alike, the source gives them in different places. Some results are limits rather than exact numbers.

T1 sequence (P43490 whole entry): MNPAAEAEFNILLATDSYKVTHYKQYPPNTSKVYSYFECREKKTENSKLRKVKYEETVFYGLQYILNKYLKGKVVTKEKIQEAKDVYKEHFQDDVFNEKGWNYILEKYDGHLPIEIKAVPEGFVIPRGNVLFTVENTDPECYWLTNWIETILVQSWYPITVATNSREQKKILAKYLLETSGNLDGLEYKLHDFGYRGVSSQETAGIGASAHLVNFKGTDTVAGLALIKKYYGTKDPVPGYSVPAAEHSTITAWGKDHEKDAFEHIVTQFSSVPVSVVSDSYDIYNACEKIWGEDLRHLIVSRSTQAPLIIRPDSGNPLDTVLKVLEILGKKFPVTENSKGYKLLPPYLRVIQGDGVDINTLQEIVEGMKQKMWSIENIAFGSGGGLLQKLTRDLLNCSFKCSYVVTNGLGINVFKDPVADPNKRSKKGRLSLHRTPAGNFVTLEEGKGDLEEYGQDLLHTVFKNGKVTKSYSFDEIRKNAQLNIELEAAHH

For `Cc1cc(S(=O)(=O)c2ccc(CNC(=O)c3cnc4[nH]ncc4c3)cc2)c(C)cc1F` [N-({4-[(4-fluoro-2,5-dimethylbenzene)sulfonyl]phenyl}methyl)-1H-pyrazolo[3,4-b]pyridine-5-carboxamide], the IC50 amounted to 45.9 nM in assay [1] (SRB) and 37.3 nM in assay [2].

On to `Cc1cc(S(=O)(=O)c2ccc(CNC(=O)c3cc4ccncc4s3)cc2)c(C)cc1F` [N-({4-[(4-fluoro-2,5-dimethylbenzene)sulfonyl]phenyl}methyl)thieno[2,3-c]pyridine-2-carboxamide], for which the IC50 in assay [1] (SRB) came to 13.6 nM; in assay [2], 4.2 nM.

As for `COc1cc(F)ccc1S(=O)(=O)c1ccc(CNC(=O)c2cnc3[nH]ncc3c2)cc1` [N-({4-[(4-fluoro-2-methoxybenzene)sulfonyl]phenyl}methyl)-1H-pyrazolo[3,4-b]pyridine-5-carboxamide], the IC50 is 74.2 nM in assay [1] (SRB) and 159 nM in assay [2].

Turning to `COc1cc(F)ccc1S(=O)(=O)c1ccc(CNC(=O)c2cc3cnccc3[nH]2)cc1` [N-({4-[(4-fluoro-2-methoxybenzene)sulfonyl]phenyl}methyl)-1H-pyrrolo[3,2-c]pyridine-2-carboxamide], the results for the IC50 in assay [1] (SRB assay) and in assay [2] were 7 nM and 31 nM, respectively.

On to `COc1cc(F)ccc1S(=O)(=O)c1ccc(CNC(=O)c2ccc3nccn3c2)cc1` [N-({4-[(4-fluoro-2-methoxybenzene)sulfonyl]phenyl}methyl)imidazo[1,2-a]pyridine-6-carboxamide], for which the figures for the IC50 in assay [1] (SRB) and in assay [2] were 7.05 nM and 19.3 nM, respectively.

With `COc1cc(F)ccc1S(=O)(=O)c1ccc(CNC(=O)c2cc3ccncc3s2)cc1` [N-({4-[(4-fluoro-2-methoxybenzene)sulfonyl]phenyl}methyl)thieno[2,3-c]pyridine-2-carboxamide], the IC50 in assay [1] (SRB assay) was determined as 6.5 nM; in assay [2], 9 nM.

Consider `COc1cc(F)ccc1NS(=O)(=O)c1ccc(CNC(=O)c2cc3cnccc3[nH]2)cc1` [N-({4-[(4-fluoro-2-methoxyphenyl)sulfamoyl]phenyl}methyl)-1H-pyrrolo[3,2-c]pyridine-2-carboxamide], for which the IC50 in assay [1] (SRB assay) was greater than 30000 nM; in assay [2] it was 3140 nM.

Consider `Cc1cc(F)ccc1S(=O)(=O)c1ccc(CNC(=O)c2cnc3[nH]ncc3c2)cc1` [N-({4-[(4-fluoro-2-methylbenzene)sulfonyl]phenyl}methyl)-1H-pyrazolo[3,4-b]pyridine-5-carboxamide], for which the IC50 in assay [1] (SRB) turned out to be 98.3 nM; in assay [2], 78.8 nM.

Turning to `Cc1cc(F)ccc1S(=O)(=O)c1ccc(CNC(=O)c2cc3cnccc3[nH]2)cc1` [N-({4-[(4-fluoro-2-methylbenzene)sulfonyl]phenyl}methyl)-1H-pyrrolo[3,2-c]pyridine-2-carboxamide], the figures for the half-maximal inhibitory concentration (IC50) in assay [1] (SRB assay) and in assay [2] were 27 nM and 19 nM, respectively.

On to `COc1cc(S(=O)(=O)c2ccc(CNC(=O)c3cnc4[nH]ncc4c3)cc2)ccc1F` [N-({4-[(4-fluoro-3-methoxybenzene)sulfonyl]phenyl}methyl)-1H-pyrazolo[3,4-b]pyridine-5-carboxamide], for which the IC50 in assay [1] (SRB) stood at 11.5 nM; in assay [2], 23.9 nM.

For the molecule `COc1cc(S(=O)(=O)c2ccc(CNC(=O)c3cc4ccncc4s3)cc2)ccc1F` [N-({4-[(4-fluoro-3-methoxybenzene)sulfonyl]phenyl}methyl)thieno[2,3-c]pyridine-2-carboxamide], the IC50 in assay [1] (SRB) was 3.1 nM; in assay [2], 9 nM.

On to `Cc1cc(S(=O)(=O)c2ccc(CNC(=O)c3cc4cnccc4[nH]3)cc2)ccc1F` [N-({4-[(4-fluoro-3-methylbenzene)sulfonyl]phenyl}methyl)-1H-pyrrolo[3,2-c]pyridine-2-carboxamide], for which the IC50 in assay [1] (SRB assay) is 7 nM; in assay [2] it was 9 nM.

`Cc1cc(S(=O)(=O)c2ccc(CNC(=O)c3ccc4nccn4c3)cc2)ccc1F` [N-({4-[(4-fluoro-3-methylbenzene)sulfonyl]phenyl}methyl)imidazo[1,2-a]pyridine-6-carboxamide]: the values for the IC50 in assay [1] (SRB) and in assay [2] were 7.14 nM and 23.5 nM, respectively.

Turning to `Cc1cc(S(=O)(=O)c2ccc(CNC(=O)c3cc4ccncc4s3)cc2)ccc1F` [N-({4-[(4-fluoro-3-methylbenzene)sulfonyl]phenyl}methyl)thieno[2,3-c]pyridine-2-carboxamide], the IC50 in assay [1] (SRB assay) amounted to 2.9 nM; in assay [2], 7 nM.

`O=C(NCc1ccc(S(=O)(=O)c2ccc(F)cc2)cc1)c1cc2ccncc2s1` [N-({4-[(4-fluorobenzene)sulfonyl]phenyl}methyl)thieno[2,3-c]pyridine-2-carboxamide]: the IC50 in assay [1] (SRB assay) was found to be 10 nM; in assay [2], 3 nM.

Regarding `CS(=O)(=O)c1ccc(S(=O)(=O)c2ccc(CNC(=O)c3cnc4[nH]ncc4c3)cc2)cc1` [N-({4-[(4-methanesulfonylbenzene)sulfonyl]phenyl}methyl)-1H-pyrazolo[3,4-b]pyridine-5-carboxamide], the concentration for half-maximal inhibition (IC50) in assay [1] (SRB) was 23.8 nM; in assay [2] it was 29.3 nM.

As to `CS(=O)(=O)c1ccc(S(=O)(=O)c2ccc(CNC(=O)c3cc4cnccc4[nH]3)cc2)cc1` [N-({4-[(4-methanesulfonylbenzene)sulfonyl]phenyl}methyl)-1H-pyrrolo[3,2-c]pyridine-2-carboxamide], the IC50 in assay [1] (SRB assay) came to 12 nM; in assay [2], 24 nM.

On to `CS(=O)(=O)c1ccc(S(=O)(=O)c2ccc(CNC(=O)c3ccc4nccn4c3)cc2)cc1` [N-({4-[(4-methanesulfonylbenzene)sulfonyl]phenyl}methyl)imidazo[1,2-a]pyridine-6-carboxamide], for which the values for the concentration for half-maximal inhibition (IC50) in assay [1] (SRB) and in assay [2] were 24.7 nM and 105 nM, respectively.

With `COc1cc(C)c(S(=O)(=O)c2ccc(CNC(=O)c3cnc4[nH]ncc4c3)cc2)cc1C` [N-({4-[(4-methoxy-2,5-dimethylbenzene)sulfonyl]phenyl}methyl)-1H-pyrazolo[3,4-b]pyridine-5-carboxamide], the IC50 worked out at 23.6 nM in assay [1] (SRB) and 36.8 nM in assay [2].

In the case of `COc1ccc(S(=O)(=O)c2ccc(CNC(=O)c3cnc4[nH]ncc4c3)cc2)c(C)c1` [N-({4-[(4-methoxy-2-methylbenzene)sulfonyl]phenyl}methyl)-1H-pyrazolo[3,4-b]pyridine-5-carboxamide], the results for the IC50 in assay [1] (SRB) and in assay [2] were 55.5 nM and 29 nM, respectively.

Regarding `COc1ccc(S(=O)(=O)c2ccc(CNC(=O)c3cc4cnccc4[nH]3)cc2)c(C)c1` [N-({4-[(4-methoxy-2-methylbenzene)sulfonyl]phenyl}methyl)-1H-pyrrolo[3,2-c]pyridine-2-carboxamide], the IC50 in assay [1] (SRB assay) and in assay [2] was 24 nM throughout.

Consider `COc1ccc(S(=O)(=O)c2ccc(CNC(=O)c3cc4ccncc4o3)cc2)c(C)c1` [N-({4-[(4-methoxy-2-methylbenzene)sulfonyl]phenyl}methyl)furo[2,3-c]pyridine-2-carboxamide], for which the IC50 in assay [1] (SRB) came out at 35.1 nM; in assay [2] it was 21.6 nM.

As to `COc1ccc(NS(=O)(=O)c2ccc(CNC(=O)c3cc4cnccc4[nH]3)cc2)c(C)c1` [N-({4-[(4-methoxy-2-methylphenyl)sulfamoyl]phenyl}methyl)-1H-pyrrolo[3,2-c]pyridine-2-carboxamide], the IC50 in assay [1] (SRB assay) is greater than 30000 nM; in assay [2], 1450 nM.

For the molecule `COc1c(C)cc(S(=O)(=O)c2ccc(CNC(=O)c3cnc4[nH]ncc4c3)cc2)cc1C` [N-({4-[(4-methoxy-3,5-dimethylbenzene)sulfonyl]phenyl}methyl)-1H-pyrazolo[3,4-b]pyridine-5-carboxamide], the IC50 in assay [1] (SRB) is 1.85 nM; in assay [2], 5 nM.

With `COc1ccc(S(=O)(=O)c2ccc(CNC(=O)c3cc4cnccc4[nH]3)cc2)cc1C` [N-({4-[(4-methoxy-3-methylbenzene)sulfonyl]phenyl}methyl)-1H-pyrrolo[3,2-c]pyridine-2-carboxamide], the figures for the IC50 in assay [1] (SRB assay) and in assay [2] were 2 nM and 10 nM, respectively.

For the molecule `COc1ccc(S(=O)(=O)c2ccc(CNC(=O)c3ccc4nccn4c3)cc2)cc1C` [N-({4-[(4-methoxy-3-methylbenzene)sulfonyl]phenyl}methyl)imidazo[1,2-a]pyridine-6-carboxamide], the IC50 in assay [1] (SRB) stood at 5.32 nM; in assay [2], 14.1 nM.

On to `COc1ccc(S(=O)(=O)c2ccc(CNC(=O)c3cc4cnccc4[nH]3)cc2)cc1` [N-({4-[(4-methoxybenzene)sulfonyl]phenyl}methyl)-1H-pyrrolo[3,2-c]pyridine-2-carboxamide], for which the values for the IC50 in assay [1] (SRB assay) and in assay [2] were 9 nM and 11 nM, respectively.

As to `COc1ccc(S(=O)(=O)c2ccc(CNC(=O)c3cc4ccncc4o3)cc2)cc1` [N-({4-[(4-methoxybenzene)sulfonyl]phenyl}methyl)furo[2,3-c]pyridine-2-carboxamide], the figures for the IC50 in assay [1] (SRB) and in assay [2] were 6 nM and 5.5 nM, respectively.

In the case of `COc1ccc(S(=O)(=O)c2ccc(CNC(=O)c3ccc4nccn4c3)cc2)cc1` [N-({4-[(4-methoxybenzene)sulfonyl]phenyl}methyl)imidazo[1,2-a]pyridine-6-carboxamide], the values for the IC50 in assay [1] (SRB) and in assay [2] were 8.66 nM and 9.74 nM, respectively.

With `COc1ccc(S(=O)(=O)c2ccc(CNC(=O)c3cc4ccncc4s3)cc2)cc1` [N-({4-[(4-methoxybenzene)sulfonyl]phenyl}methyl)thieno[2,3-c]pyridine-2-carboxamide], the half-maximal inhibitory concentration (IC50) came out at 2.7 nM in assay [1] (SRB assay) and 5 nM in assay [2].

On to `Cc1ccc(S(=O)(=O)c2ccc(CNC(=O)c3cc4cnccc4[nH]3)cc2)cc1` [N-({4-[(4-methylbenzene)sulfonyl]phenyl}methyl)-1H-pyrrolo[3,2-c]pyridine-2-carboxamide], for which the IC50 is 9 nM in assay [1] (SRB assay) and 6 nM in assay [2].

For the molecule `Cc1ccc(S(=O)(=O)c2ccc(CNC(=O)c3cc4ccncc4o3)cc2)cc1` [N-({4-[(4-methylbenzene)sulfonyl]phenyl}methyl)furo[2,3-c]pyridine-2-carboxamide], the IC50 in assay [1] (SRB) is 6 nM; in assay [2], 121 nM.

By IC50 is commonly meant the concentration at which inhibition is half-maximal.
